{
  "source": "patent US6476062B2",
  "about": "“Chemokine receptor antagonists” (Schering Corporation, priority 2000, dated 2002)",
  "target": "T1, human CCR5 chemokine receptor (Homo sapiens, UniProt P51681)",
  "T1 construct": "expressed in transfected cells; host or cells: NIH 3T3 cells (mouse fibroblasts) expressing human CCR5; membranes prepared from them",
  "T1 sequence (P51681 whole entry)": "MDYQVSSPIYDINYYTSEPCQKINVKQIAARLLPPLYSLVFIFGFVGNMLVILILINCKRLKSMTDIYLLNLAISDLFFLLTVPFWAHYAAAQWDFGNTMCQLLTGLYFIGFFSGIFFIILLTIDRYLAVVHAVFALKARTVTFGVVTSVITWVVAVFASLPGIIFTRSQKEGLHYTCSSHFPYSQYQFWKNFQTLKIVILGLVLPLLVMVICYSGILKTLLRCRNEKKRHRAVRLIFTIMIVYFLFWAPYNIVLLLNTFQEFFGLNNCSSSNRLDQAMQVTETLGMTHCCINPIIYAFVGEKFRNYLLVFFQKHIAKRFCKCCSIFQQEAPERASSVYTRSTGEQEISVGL",
  "experiment": "CCR5 membrane binding assay (inhibition of 125I-RANTES binding)",
  "settings": "membranes from NIH 3T3 cells expressing human CCR5; 0.05 nM 125I Rantes; one hour; replicates of four; read-out: IC50, 50 percent inhibition of total membrane binding of 125I Rantes",
  "protocol": "A high throughput screen utilizing a CCR5 membrane binding assay identifies inhibitors of RANTES binding. This assay utilizes membranes prepared from NIH 3T3 cells expressing the human CCR5 chemokine receptor which have the ability to bind to RANTES, a natural ligand for the receptor. Using a 96-well plate format, membrane preparations are incubated with ^125I-RANTES in the presence or absence of compound for one hour. Compounds are serially diluted over a wide range of 0.001 ug/ml to 1 ug/ml and tested in triplicates. Reaction cocktails are harvested through glass fiber filters, and washed thoroughly. Total counts for replicates are averaged and data reported as the concentration required to inhibit 50 percent of total ^125I-RANTES binding. Compounds with potent activity in the membrane binding assay are further characterized in secondary cell-based HIV-1 entry and replication assays.\nThe activity of the compound of formula II was evaluated in the CCR5 membrane binding assay. The assay utilizes membranes prepared from NIH 3T3 cells which express human CCR5 chemokine receptor. RANTES (Regulated upon Activation, Normal T cell Expressed and Secreted) is a natural ligand for the CCR5. […] Total counts for replicates are averaged and 50 percent inhibition of total membrane binding of ^125I Rantes is determined.",
  "data": [
    {"smiles": "C/C=C(\\C)[C@@H]1C=C[C@@H]2C[C@H](C)C[C@H](C)[C@H]2[C@@H]1/C(O)=C1/C(=O)N[C@H](C[C@@](C)(O)C(=O)O)C1=O", "note": "[Compound II]", "values": [
      {"measurement": "IC50", "value": 78.6, "unit": "nM"}
    ]}
  ]
}
